Assay results taken from patent US12685726B2, “Sulfoximines as inhibitors of NaV1.8” (Gruenenthal GmbH, priority 2022, dated 2026).
pIC50: −log10 of the molar value.

Molecular target: T1, human NaV 1.8 (Homo sapiens, UniProt Q9Y5Y9)
T1 construct: expressed in transfected cells; host or cells: HEK (recombinant cell line)
Assay: Automated whole-cell patch clamp (Qube384) voltage-clamp recordings of sodium currents in HEK-NaV1.8 cell line
Format: cell-based
Details: read-out: Potency category (human NaV 1.8 IC50)
Method: Electrophysiology: Voltage-Clamp Recordings
The following NaV1.8 recombinant cell line was used for recordings: HEK-NaV1.8 (NM_006514.1) with b3 (NM_018400.3).
Sodium currents were measured using the patch clamp technique in the whole-cell configuration using the Qube384 (Sophion A/S, Copenhagen, Denmark) automated voltage clamp platform. “Multi hole” plates were used for the cell line expressing NaV1.8 while “single hole” plates were used for the recombinant cell lines expressing the other subtypes. Appropriate filters (for minimum seal resistance and minimum current size) and series resistance compensation (for high quality sodium channel recordings) were applied. Data was collected at ambient room temperature or 19° C.
The recording extracellular solution contained (in mM): NaCl 145 mM, KCl 4 mM, CaCl2 2 mM, MgCl2 1 mM, HEPES 10 mM, Glucose 10 mM, pH 7.4 (NaOH). The intracellular recording solution contained (in mM): CsF 120 mM, CsCl 20 mM, NaCl 10 mM, EGTA 10 mM, HEPES 10 mM, pH 7.2 (CsOH). Currents were recorded at 25 kHz sampling frequency and filtered at 5 kHz. Series resistance compensation was applied at 65%.
Vehicle (VEH) is the control condition where cells are exposed to 0.3% DMSO without compound. All runs include VEH controls being exposed to the same voltage protocols to assess non-compound related phenomena such as run down and then used to isolate compound dependent effects on currents.
To check for state-dependent inhibition, the following voltage-sequence was applied every 20 seconds:
From a resting membrane potential of −120 mV, the first test pulse (P1; 20 ms to −10 mV) was applied to check for channels in the Resting State followed by a brief recovery (100 ms to −120 mV), then holding the membrane voltage to V1/2 (4 seconds at voltage to obtain half the channel at Rest and half Inactivated) with a subsequent second test pulse (P2; 20 ms to −10 mV) to check for channels in the Inactivated State, followed by another brief recovery (20 ms to −120 mV) and a final third test pulse (P3; 20 ms to −10 mV) to check for recovered channels.
To check for frequency-dependent inhibition, a 10 Hz protocol and a 20 Hz protocol were applied; namely,
From a resting membrane potential of −120 mV, 40-pulses (10 ms to −10 mV) was applied at 10 Hz (at 100 ms between pulses) and then at 20 Hz (at 50 ms between pulses).
Each parameter was recorded (P1, P2, P3, P40 from 10 Hz and P40 from 20 Hz) during a control period (lasting 5 minutes) when establishing the baseline and during compound period (lasting ~12 minutes) when test compound (or vehicle) was applied. For each parameter, the value at the end of the compound period was normalized to the vehicle baseline; as follows
To adjust for any variance in the Na^+ current signal during the compound period (owing to cumulative inactivation independent of compound or shifts in biophysics over time), a dedicated segment of the recording wells in each 384 plate were dedicated to having only vehicle exposure. These vehicle-only recordings were used to correct for any apparent “run-up” or “run-down” in the experiment.
The adjusted inhibition was calculated as follows: […]
Percent inhibition was determined and IC50 values were calculated using a 4 parameter logistic model within XLFit Software (IDBS, Boston MA): F
[formula] where A and B are the maximal and minimum inhibition respectively, C is the IC50 concentration and D is the (Hill) slope.

T1 sequence (Q9Y5Y9 whole entry): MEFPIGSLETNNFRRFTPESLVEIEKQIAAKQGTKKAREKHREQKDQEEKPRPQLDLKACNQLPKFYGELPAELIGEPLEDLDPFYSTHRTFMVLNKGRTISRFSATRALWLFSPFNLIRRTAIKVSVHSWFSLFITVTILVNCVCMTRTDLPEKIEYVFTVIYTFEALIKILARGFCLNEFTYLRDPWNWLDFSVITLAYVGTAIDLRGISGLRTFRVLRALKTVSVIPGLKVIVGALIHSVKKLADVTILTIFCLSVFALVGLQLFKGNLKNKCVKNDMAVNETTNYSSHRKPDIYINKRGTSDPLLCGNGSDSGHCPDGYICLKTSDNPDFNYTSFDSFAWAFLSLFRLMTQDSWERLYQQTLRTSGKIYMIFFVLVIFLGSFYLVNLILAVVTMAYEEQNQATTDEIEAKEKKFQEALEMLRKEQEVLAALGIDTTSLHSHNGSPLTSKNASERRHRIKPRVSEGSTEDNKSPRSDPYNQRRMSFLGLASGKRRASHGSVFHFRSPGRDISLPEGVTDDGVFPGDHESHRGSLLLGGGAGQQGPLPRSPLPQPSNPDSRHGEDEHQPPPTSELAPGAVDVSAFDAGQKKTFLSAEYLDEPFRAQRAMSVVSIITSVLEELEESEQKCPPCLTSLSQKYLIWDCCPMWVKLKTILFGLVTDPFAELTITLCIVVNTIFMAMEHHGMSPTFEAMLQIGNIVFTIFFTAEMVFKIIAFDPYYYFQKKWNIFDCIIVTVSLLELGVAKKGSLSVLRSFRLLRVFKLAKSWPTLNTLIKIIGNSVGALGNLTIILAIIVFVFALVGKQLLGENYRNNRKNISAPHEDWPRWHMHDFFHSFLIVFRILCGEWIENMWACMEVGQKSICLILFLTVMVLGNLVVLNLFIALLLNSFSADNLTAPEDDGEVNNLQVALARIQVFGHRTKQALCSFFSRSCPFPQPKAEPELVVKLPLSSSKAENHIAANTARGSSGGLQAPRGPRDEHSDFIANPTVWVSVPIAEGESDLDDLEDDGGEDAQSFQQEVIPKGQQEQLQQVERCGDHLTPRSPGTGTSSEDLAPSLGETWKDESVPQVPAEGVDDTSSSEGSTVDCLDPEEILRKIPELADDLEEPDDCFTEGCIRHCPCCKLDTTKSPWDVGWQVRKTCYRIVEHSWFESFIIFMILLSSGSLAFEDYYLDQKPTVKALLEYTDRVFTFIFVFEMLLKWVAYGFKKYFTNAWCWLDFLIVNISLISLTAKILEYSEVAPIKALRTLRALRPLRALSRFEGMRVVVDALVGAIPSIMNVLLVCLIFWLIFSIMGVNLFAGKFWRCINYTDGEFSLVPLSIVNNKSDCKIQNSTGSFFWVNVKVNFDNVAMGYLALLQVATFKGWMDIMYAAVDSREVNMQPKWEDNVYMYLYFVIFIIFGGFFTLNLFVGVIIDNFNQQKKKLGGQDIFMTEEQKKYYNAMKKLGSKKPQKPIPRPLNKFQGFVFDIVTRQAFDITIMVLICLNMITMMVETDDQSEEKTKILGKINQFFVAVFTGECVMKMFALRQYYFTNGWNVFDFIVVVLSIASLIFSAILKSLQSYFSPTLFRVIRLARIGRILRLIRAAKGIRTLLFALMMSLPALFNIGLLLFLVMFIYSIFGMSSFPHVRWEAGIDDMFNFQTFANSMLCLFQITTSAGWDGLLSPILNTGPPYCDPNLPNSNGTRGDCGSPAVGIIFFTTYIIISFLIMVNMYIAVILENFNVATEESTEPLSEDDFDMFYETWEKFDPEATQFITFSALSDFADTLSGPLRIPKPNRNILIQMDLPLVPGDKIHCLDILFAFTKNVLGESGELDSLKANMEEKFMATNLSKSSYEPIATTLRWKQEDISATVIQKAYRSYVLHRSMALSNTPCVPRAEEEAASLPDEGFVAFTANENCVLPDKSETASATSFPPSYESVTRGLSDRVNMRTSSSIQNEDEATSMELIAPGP

SMILES | pIC50
C[S@](=N)(=O)c1cc(NC(=O)c2c(C(F)(F)F)c(C3CC3)nn2C[C@H]2C(F)(F)C23CC3)ccn1 (single isomer, unassigned) [Example 79b, 3-cyclopropyl-1-((2,2-difluorospiro[2.2]pentan-1-yl)methyl)-N-(2-(S-methylsulfonimidoyl)pyridin-4-yl)-4-(trifluoromethyl)-1H-pyrazole-5-carboxamide] | ≥ 7.00
Cc1c(C(C)(F)F)nn(C[C@H]2C[C@@H](C(F)(F)F)C2)c1C(=O)Nc1ccnc(S(C)(=N)=O)c1 (single isomer, unassigned) [Example 31a, 3-(1,1-difluoroethyl)-4-methyl-N-(2-(S-methylsulfonimidoyl)pyridin-4-yl)-1-(((cis)-3-(trifluoromethyl)cyclobutyl)methyl)-1H-pyrazole-5-carboxamide] | ≥ 7.00
CC1(Cn2nc(C3(C(F)(F)F)CC3)c(C(F)(F)F)c2C(=O)Nc2ccnc(S(C)(=N)=O)c2)CC(F)(F)C1 (single isomer, unassigned) [Example 144b, 1-((3,3-Difluoro-1-methylcyclobutyl)methyl)-N-(2-(S-methylsulfonimidoyl)pyridin-4-yl)-4-(trifluoromethyl)-3-(1-(trifluoromethyl)cyclopropyl)-1H-pyrazole-5-carboxamide] | ≥ 7.00
CC1(Cn2nc(C3(F)CC3)c(C(F)(F)F)c2C(=O)Nc2cccc(S(=N)(=O)C(F)F)c2)CC(F)(F)C1 (single isomer, unassigned) [Example 130b, 1-((3,3-Difluoro-1-methylcyclobutyl)methyl)-N-(3-(S-(difluoromethyl)sulfonimidoyl)phenyl)-3-(1-fluorocyclopropyl)-4-(trifluoromethyl)-1H-pyrazole-5-carboxamide] | ≥ 7.00
CS(=N)(=O)c1cc(NC(=O)c2c(C(F)(F)F)c(C3CC3)nn2CC2C3(CC3)C23CC3)ccn1 (single isomer, unassigned) [Example 80a, 3-cyclopropyl-1-(dispiro[2.0.24.13]heptan-7-ylmethyl)-N-(2-(S-methylsulfonimidoyl)pyridin-4-yl)-4-(trifluoromethyl)-1H-pyrazole-5-carboxamide] | ≥ 7.00
CS(=N)(=O)c1cc(NC(=O)c2c(C(F)(F)F)c(C3CC3)nn2C[C@@H]2CCC(F)(F)C2)ccn1 (single isomer, unassigned) [Example 17d] | ≥ 7.00
CS(=N)(=O)c1cc(NC(=O)c2c(C(F)(F)F)c(C3CC3)nn2CC23CC2CC(F)(F)C3)ccn1 (single isomer, unassigned) [Example 95c, 3-Cyclopropyl-1-((3,3-difluorobicyclo[3.1.0]hexan-1-yl)methyl)-N-(2-(S-methylsulfonimidoyl)pyridin-4-yl)-4-(trifluoromethyl)-1H-pyrazole-5-carboxamide] | ≥ 7.00
CS(=N)(=O)c1cc(NC(=O)c2c(C(F)(F)F)c(C3CC3)nn2CC2CCC(F)(F)C2)ccn1 (single isomer, unassigned) [Example 7b, 3-cyclopropyl-1-((3,3-difluorocyclopentyl)methyl)-N-(2-(S-methylsulfonimidoyl)pyridin-4-yl)-4-(trifluoromethyl)-1H-pyrazole-5-carboxamide] | ≥ 7.00
CC1(Cn2nc(C3CC3)c(C(F)(F)F)c2C(=O)Nc2ccc(F)c(S(C)(=N)=O)c2)CC(F)(F)C1 (single isomer, unassigned) [Example 132b, 3-Cyclopropyl-1-((3,3-difluoro-1-methylcyclobutyl)methyl)-N-(4-fluoro-3-(S-methylsulfonimidoyl)phenyl)-4-(trifluoromethyl)-1H-pyrazole-5-carboxamide] | ≥ 7.00
CC1(Cn2nc(C3CC3(F)F)c(C(F)(F)F)c2C(=O)Nc2ccnc(S(C)(=N)=O)c2)CC(F)(F)C1 (single isomer, unassigned) [Example 63c, 1-((3,3-Difluoro-1-methylcyclobutyl)methyl)-3-(2,2-difluorocyclopropyl)-N-(2-(S-methylsulfonimidoyl)pyridin-4-yl)-4-(trifluoromethyl)-1H-pyrazole-5-carboxamide] | ≥ 7.00
CS(=N)(=O)c1cccc(NC(=O)c2c(C(F)(F)F)c(C34CC(C3)C4)nn2CC2C[C@@H]2C(F)F)c1 (stereo in doubt) [Example 139, 3-(Bicyclo[1.1.1]pentan-1-yl)-1-(((trans)-2-(difluoromethyl)cyclopropyl)methyl)-N-(3-(S-methylsulfonimidoyl)phenyl)-4-(trifluoromethyl)-1H-pyrazole-5-carboxamide] | ≥ 7.00
CC1(Cn2nc(C34CC(C3)C4)c(C(F)F)c2C(=O)Nc2ccnc(S(C)(=N)=O)c2)CC(F)(F)C1 (single isomer, unassigned) [Example 137b, 3-(Bicyclo[1.1.1]pentan-1-yl)-1-((3,3-difluoro-1-methylcyclobutyl)methyl)-4-(difluoromethyl)-N-(2-(S-methylsulfonimidoyl)pyridin-4-yl)-1H-pyrazole-5-carboxamide] | ≥ 7.00
CS(=N)(=O)c1cc(NC(=O)c2c(C(F)(F)F)c(C3CC3)nn2CC23CC(CC2(F)F)C3)ccn1 (single isomer, unassigned) [Example 103b, 3-cyclopropyl-1-((2,2-difluorobicyclo[2.1.1]hexan-1-yl)methyl)-N-(2-(S-methylsulfonimidoyl)pyridin-4-yl)-4-(trifluoromethyl)-1H-pyrazole-5-carboxamide] | ≥ 7.00
CC1(Cn2nc(C3CC3)c(C(F)(F)F)c2C(=O)Nc2ccnc(S(C)(=N)=O)c2)CCC(F)(F)C1 (single isomer, unassigned) [Example 29b, 3-Cyclopropyl-1-((3,3-difluoro-1-methylcyclopentyl)methyl)-N-(2-(S-methylsulfonimidoyl)pyridin-4-yl)-4-(trifluoromethyl)-1H-pyrazole-5-carboxamide] | ≥ 7.00
Cc1cc(NC(=O)c2c(C(F)(F)F)c(C3CC3)nn2CC2(C)CC(F)(F)C2)cc(S(C)(=N)=O)n1 (single isomer, unassigned) [Example 50a, 3-cyclopropyl-1-((3,3-difluoro-1-methylcyclobutyl)methyl)-N-(2-methyl-6-(S-methylsulfonimidoyl)pyridin-4-yl)-4-(trifluoromethyl)-1H-pyrazole-5-carboxamide] | ≥ 7.00
C[C@]1(Cn2nc(C3CC3)c(C(F)(F)F)c2C(=O)Nc2ccnc([S@](C)(=N)=O)c2)CC(F)(F)C12CC2 (single isomer, unassigned) [Example 92a, 3-cyclopropyl-1-((6,6-difluoro-4-methylspiro[2.3]hexan-4-yl)methyl)-N-(2-(S-methylsulfonimidoyl)pyridin-4-yl)-4-(trifluoromethyl)-1H-pyrazole-5-carboxamide] | ≥ 7.00
CC1(Cn2nc(C3(C(F)(F)F)CC3)c(C(F)(F)F)c2C(=O)Nc2ccnc(S(C)(=N)=O)c2)CC(F)(F)C1 (single isomer, unassigned) [Example 144a, 1-((3,3-Difluoro-1-methylcyclobutyl)methyl)-N-(2-(S-methylsulfonimidoyl)pyridin-4-yl)-4-(trifluoromethyl)-3-(1-(trifluoromethyl)cyclopropyl)-1H-pyrazole-5-carboxamide] | ≥ 7.00
CC1(Cn2nc(C3CC3(F)F)c(C(F)(F)F)c2C(=O)Nc2ccnc(S(C)(=N)=O)c2)CC(F)(F)C1 (single isomer, unassigned) [Example 63b, 1-((3,3-Difluoro-1-methylcyclobutyl)methyl)-3-(2,2-difluorocyclopropyl)-N-(2-(S-methylsulfonimidoyl)pyridin-4-yl)-4-(trifluoromethyl)-1H-pyrazole-5-carboxamide] | ≥ 7.00
CS(=N)(=O)c1cc(NC(=O)c2c(C(F)(F)F)c(C3CC3)nn2CC2CCC23CNC3)ccn1 (single isomer, unassigned) [Example 153a, 1-((2-Azaspiro[3.3]heptan-5-yl)methyl)-3-cyclopropyl-N-(2-(S-methylsulfonimidoyl)pyridin-4-yl)-4-(trifluoromethyl)-1H-pyrazole-5-carboxamide] | 5.00 to 6.00
